Entries after “also recorded” stand apart in the source; their conditions may differ.
Experiments:
[1] = system: NFAT signal; assay: NFAT signal inhibitory effect: pNFAT-Luc luciferase reporter assay with ionomycin stimulation; format: cell-based, human; details: HEK293 cells transfected with pNFAT-Luc; 1 μM ionomycin; assay after 8 hours; FIG. 4
Protocol: (1) Materials and Methods for Evaluation System
In this evaluation system, human kidney (HEK293) cells were purchased from ATCC (American Type Culture Collection) and used. HEK293 cells were cultured in DMEM (High glucose, 10% heat-inactivated FBS) under the conditions of 37° C. and 5% CO2.
In this evaluation system, HEK293 cells transfected with a plasmid having firefly luciferase introduced into the downstream of the NFAT-binding sequence, pNFAT-Luc (Stratagene), were used. More specifically, pNFAT-Luc (Stratagene), in which firefly luciferase gene was introduced in the downstream of 4 copies of the NFAT-binding sequence, was transfected into HEK293 cells for an evaluation of the NFAT transcription activity. Furthermore, for the purpose of eliminating fluctuation due to the transfection efficiency, pRL-CMV (Promega) having Renilla luciferase introduced in the downstream of CMV promoter, was simultaneously transfected so as to correct for the signal derived from firefly luciferase.
Transfection was carried out using LipofectAMINE 2000 reagent (Invitrogen) according to the manual. The medium was exchanged eight hours after the transfection, and the system was incubated overnight. Thereafter, the component A, component B and component C obtained in Example 1, and the deacylation product of the component A prepared in Example 3 were added thereto, and further after one hour, 1 μM ionoinycin was added thereto. After 8 hours, a luciferase reporter assay was carried out.
Luciferase Reporter Assay
The luciferase reporter assay was carried out using Dual-Glo Luciferase Assay System (Promega) according to the manual. That is, the medium was removed, and then Dual-Glo luciferase reagent which had been diluted two times with PBS, was added thereto. The system was stirred, and after 20 minutes, the firefly luciferase activity was measured. Thereafter, an equal amount of Dual-Glo Stop&Glo reagent was added to the system, the mixture was stirred, and then the Renilla luciferase activity was measured. The luciferase activity measurement was carried out using MiniLumat LB 9506 (EG&G Berthold), and the amount of luminescence by luciferase was quantitatively detected. For both luciferases, the duration for luciferase activity measurement was set to 2 seconds.
Calculation of NFAT Signal Inhibitory Rate.
All of the NFAT transcription activity values (firefly luciferase activity) were corrected by dividing the values of the Renilla luciferase activity introduced for the transfection efficiency correction. Thereafter, the NFAT signal inhibitory rate was calculated by the following expression.
NFAT signal inhibitory rate (%)=100−(Test sample and ionomycin-added group−non-stimulation group)/(Ionomycin only-added group−non-stimulation group)×100

[2] = system: swine hair follicles; assay: Evaluation of hair shaft elongation by swine hair follicle organ culture; format: cell-based; details: isolated pig hair follicles cultured 8 days; solvent control (ethanol) taken as 100%; FIG. 6
Protocol: Evaluation of Hair Shaft Elongation by Swine Hair Follicle Organ Culture
The skin of buttocks of a pig for meat was separated into an appropriate size, and excess fatty tissue was removed. The pigskin was disinfected by immersing in a hibitane solution (5% hibitane solution (Dainippon Sumitomo Pharma Co., Ltd.) diluted to 5 to 20 times with water) for 5 minutes to 10 minutes under sterile conditions, and after that was washed several times with D-PBS. Subsequently, hair follicles were isolated from the washed pigskin under a stereoscopic microscope, and the hair follicles were collected in William's Medium E (Invitrogen) medium. […]
The component A and component B obtained in Example 1 were added to the above-mentioned medium, and the system was cultured for 8 days, together with an ethanol-added group, which was a solvent control. Stereomicroscopic images of the culture were captured on the day of culture initiation (zeroth day) and on the eighth day with a CCD camera (Pixera Model No. PVC 100C), and from those images, the length from the base of the hair bulb to the tip of the hair shaft was measured. Thereafter, the hair shaft elongation ratios of the component A and component B obtained in Example 1 were calculated, with the amount of hair shaft elongation of the solvent control group before and after culture being taken as 100%.

| Compound | NFAT signal inhibitory rate [1] | hair shaft elongation ratio (hair-growing effect) [2] |
| --- | --- | --- |
| C/C=C(/C)C(=O)OC1c2c(ccc3ccc(=O)oc23)O[C@@H]1C(C)(C)OC(=O)/C(C)=C\C (stereo partly drawn) [component A, archangelicin] | inhibited the NFAT signal; also recorded: strong NFAT signal inhibitory activity | significant hair shaft elongation |
| C/C=C(/C)C(=O)OC(C)(C)[C@H]1Oc2ccc3ccc(=O)oc3c2[C@H]1O [deacylation product of the component A, 3′-hydroxy-4′-angeloyloxy-2′,3′-dihydrooroselol] | inhibited the NFAT signal |  |
| C/C=C(/C)C(=O)OC1c2c(ccc3ccc(=O)oc23)OC1C(C)(C)OC(=O)CC(C)C (stereo not drawn) [component B, 3′-angeloyloxy-4′-isovaleryloxy-2′,3′-dihydrooroselol] | inhibited the NFAT signal; also recorded: strong NFAT signal inhibitory activity | significant hair shaft elongation |
| C/C=C(/C)C(=O)OC1c2c(ccc3ccc(=O)oc23)O[C@@H]1C(C)(C)OC(=O)C=C(C)C (stereo partly drawn) [component C, 3′-angeloyloxy-4′-senecioyloxy-2′,3′-dihydrooroselol] | inhibited the NFAT signal; also recorded: strong NFAT signal inhibitory activity |  |

From patent publication US8420836B2, “NFAT signal inhibitor and hair-growing agent” (Kao Corporation, priority 2008, dated 2013)
